13 molecules from patent US4565817A, “Theophyllinyl-alkyl-oxadiazoles, process for the preparation thereof and pharmaceutical compositions containing same” (Chinoin Gyogyszer-es Vegyeszeti Termekek Gyara R.T., priority 1982, dated 1986) can be followed below.

One data set concerns guinea pigs. Put plainly: Cough relieving against 15% citric acid spray in guinea pigs, one hour after administration. It counts as in vivo. Conditions: Cavia porcellus, im, 1 h, one hour after 50 mg/kg i.m., % related to the control, read-out: Cough inhibition Q %. On the procedure: Q = Cough relieving induced by 15% citric acid spray in guinea pigs one
hour after administration of the substances (50 mg/kg, i.m.) expressed in
% related to the control.

The nature of another data set: in vivo. Conditions: mouse.
Data set [1] has as its system trachea stria isolated from rabbit. The data set is described as follows: Bronchial spasm induced by histamine, in vitro on isolated trachea stria. The source says:
(§1) A special group of the compounds of the formula I are those compounds in which R1 stands for alkyl, aralkyl, or aryl. […] Path. […] This activity is significant in relieving cough of the asthmatic type.

The next data set relates to guinea pig. The data set is described as follows: Bronchial spasm induced by histamine, in vivo according to Konzett and Rossler.
Description: as §1

Data set [2] relates to spasm caused by acetyl choline or serotonine. Put plainly: Spasm caused by acetyl choline or serotonine.
Description: as §1

Data set [3] relates to rat paw carrageenin oedema. The data set is described as follows: Rat paw carrageenin oedema test. It counts as in vivo. Conditions: i.m. administration, compared with indomethacin. The source says: Another special group of the compounds according to the invention are the compounds having an alkyl amino group in place of R1. […] This activity is important in cough relieving accompanied by inflammation in the respiration system.
In general terms: In the carrageenan paw model, swelling and tenderness develop within hours.

A short description of data set [4]: General pharmacological activity (cough relieving, bronchodilatory, antiasthmatic, antiinflammatory). As to conditions: in vivo.

What is called LD50 is the dose at which mortality reaches 50%. Low readings indicate a more toxic substance, high ones a less toxic substance. Consider `Cn1c(=O)c2c(ncn2Cc2noc(CCN3CCCCC3)n2)n(C)c1=O`, for which the inhibition in vivo at 50 mg/kg in the data set on guinea pigs is 54.1%. For the same molecule, the figures for the LD50 in the data set “in vivo” (iv) and in “in vivo” (po) were 240 mg/kg and 1550 mg/kg, respectively.
The like results for `Cn1c(=O)c2c(ncn2Cc2noc(CCN3CCOCC3)n2)n(C)c1=O` were, in that order, 55.4%, 230 mg/kg and 1530 mg/kg.
For `CN1CCN(CCc2nc(Cn3cnc4c3c(=O)n(C)c(=O)n4C)no2)CC1` the same measures were 54.5%, 224 mg/kg and 1670 mg/kg.
With `Cn1c(=O)c2c(ncn2CCc2noc(CCN3CCOCC3)n2)n(C)c1=O`, in the data set with guinea pigs, the inhibition in vivo at 50 mg/kg worked out at 48.6%. Further, the median lethal dose (LD50) was 217 mg/kg in “in vivo” (iv) and 2600 mg/kg in the data set “in vivo” (po).
Consider `Cn1c(=O)c2c(ncn2CCCc2noc(CCN3CCOCC3)n2)n(C)c1=O`, for which the inhibition in vivo at 50 mg/kg in the data set on guinea pigs stood at 47.7%. In addition, the LD50 came to 220 mg/kg in “in vivo” (iv) and 1900 mg/kg in “in vivo” (po).
The like results for `CN1CCN(CCc2nc(CC(O)Cn3cnc4c3c(=O)n(C)c(=O)n4C)no2)CC1` (stereo not shown) were, in that order, 48.6%, 215 mg/kg and 1800 mg/kg.
For `CC(C)NCCc1nc(CCn2cnc3c2c(=O)n(C)c(=O)n3C)no1` [(CH2)2 (CH2)2 NHi.Pr] the same measures were 54.7%, 200 mg/kg and 1750 mg/kg.
For `COc1ccc2c3c1O[C@H]1[C@@H](O)C=C[C@H]4[C@@H](C2)N(C)CC[C@@]341` [Codeine, reference compound], in the data set on guinea pigs, the inhibition in vivo at 50 mg/kg turned out to be 50%. This molecule also had an LD50 in the data set “in vivo” (iv) of 54 mg/kg.
On to `Cc1nc(Cn2cnc3c2c(=O)n(C)c(=O)n3C)no1` [Example 1, 7-[(5-methyl-1,2,4-oxadiazol-3-yl)-methyl]-theophylline], for which the inhibition in vivo at 50 mg/kg with guinea pigs was determined as 54.3%. The “bronchial spasm induced by histamine (in vitro)” value in data set [1] is on record as “decreases the bronchial spasm induced by histamine”. The duration of activity entry in the data set on guinea pig (histamine-induced bronchial spasm, compared with theophylline ethylene diamine) was “considerably longer than in case of theophylline ethylene diamine”. Further, in the data set with guinea pig (in vivo, guinea pig, Konzett and Rossler, histamine), the “bronchial spasm induced by histamine (in vivo)” value is “decreases the bronchial spasm induced by histamine”. Besides, the “spasm caused by acetyl choline” value in data set [2] (acetyl choline) is on record as “prevents the spasm caused by acetyl choline or serotonine”. The “spasm caused by serotonine” value in data set [2] (serotonine) is “prevents the spasm caused by acetyl choline or serotonine”.
Consider `CCN(CC)CCc1nc(Cn2cnc3c2c(=O)n(C)c(=O)n3C)no1` [Example 4, 7-[{5-(2-diethylamino-ethan-1-yl)-1,2,4-oxadiazol-3-yl}-methyl]-theophylline], for which, in the data set with guinea pigs, the inhibition in vivo at 50 mg/kg amounted to 56.7%. Besides, in data set [3], the anti-inflammatory activity result was “strong (comparable with indomethacin) anti-inflammatory activity”. For the same molecule, in data set [4], the “pharmacological activity in words” value was “cough relieving and bronchodilatory activity”. In addition, the 50% lethal dose (LD50) came to 215 mg/kg in “in vivo” (iv) and 1400 mg/kg in the data set “in vivo” (po).
For the molecule `CCN(CC)CCc1nc(CCCn2cnc3c2c(=O)n(C)c(=O)n3C)no1` [Example 12, 7-[3-5-(2-diethylamino-ethan-1-yl)-1,2,4-oxadiazol-3-yl-propan-1-yl]-theophylline-maleinate], the inhibition in vivo at 50 mg/kg in the data set with guinea pigs amounted to 51.5%. The median lethal dose (LD50) was 237 mg/kg in “in vivo” (iv) and 2250 mg/kg in “in vivo” (po).
In the case of `CCCc1nc(Cn2cnc3c2c(=O)n(C)c(=O)n3C)no1` [Example 18], the inhibition in vivo at 50 mg/kg in the data set on guinea pigs was 51.1%. For the same molecule, the LD50 in the data set “in vivo” (iv) was found to be 390 mg/kg; in the data set “in vivo” (po), 1400 mg/kg.
Turning to `c1ccc(C(Cc2noc(CCN3CCCCC3)n2)c2ccccc2)cc1` [Prenoxdiazine, reference compound], the inhibition in vivo at 50 mg/kg in the data set with guinea pigs was found to be 44.5%. Further, the values for the LD50 in “in vivo” (iv) and in “in vivo” (po) were 34 mg/kg and 920 mg/kg, respectively.
